From US10711244B2, “Mammalian neural plate border stem cells capable of forming neural tube and neural crest cell lineages including central and peripheral neurons” (Max-Planck-Gesellschaft zur Förderung der Wissenschaften …, priority 2012, dated 2020)

Columns and labels:
Format in all cases: cell-based, human
NPBSCs [1] = assay: Dorsoventral patterning of NPBSCs by CHIR and PMA (qRT-PCR, immunostaining)
Method: Total RNA was isolated from cultured cells using RNeasy columns (Qiagen), according to manufacturer instructions, including an on-column DNase digest. Isolated RNA was reverse-transcribed using M-MLV Reverse Transcriptase (USB) with oligo-[…] primers (Metabion) for 1 h at 42° C. qRT-PCR was performed on an Applied Biosystems 7500 Real-Time PCR system with SYBR green PCR master mix (ABI) and 56 ng of original RNA equivalents per 20 μl PCR reaction. Cycling conditions were 40 cycles of 15 s, 95° C./60 s 60° C. Relative expression levels were calculated using the […] method, normalized to biological reference samples and using GAPDH and ACTB as housekeeping genes. Next, we sought to determine if NPBSCs remain competent for WNT and SHH mediated patterning of neural fate commitment. […] SHH signaling opposes dorsal neural fates and specifies ventral fates (Ulloa and Briscoe, 2007). […] Therefore, we conclude that NPBSCs are receptive to WNT and SHH induced dorsoventral patterning of neural fate specification. […] As such, the upregulation of these markers by NPBSCs could also be because of assuming a neural plate border and/or neural crest identity. To test this possibility, we assessed the responsiveness of the CNS progenitor marker SOX1 to SHH and WNT signaling. […] The inhibition by CHIR is the same that induced MSX1 and PAX3 upregulation.

differentiating hEBs = assay: NPBSC derivation from EBs with CHIR and/or PMA; conditions: EBs treated with the indicated small molecules; morphology, neural markers
Method: For generation of NPBSCs from pluripotent stem cells, colonies were detached from the MEFs three to four days after splitting, using 2 mg/ml collagenase IV (Invitrogen). Colony pieces were collected by sedimentation and resuspended in hESC medium (without FGF2) supplemented with 10 μM SB-431542 (Ascent Scientific), 1 μM dorsomorphin (Tocris) for neural induction, as well as 3 μM CHIR 99021 (Axon Medchem), 0.5 μM PMA (Alexis) and cultured in petri dishes. Medium was replaced on day two by N2B27 supplemented with the same small molecule supplements. N2B27 consisted of DMEM-F12 (Invitrogen)/Neurobasal (Invitrogen) 50:50 with 1:200 N2 supplement (Invitrogen), 1:100 B27 supplement lacking vitamin A (Invitrogen) with 1% Penicillin/Streptomycin/Glutamine (PAA). On day four, SB-431542 and dorsomorphin were withdrawn and 150 μM Ascorbic Acid (AA; Sigma) was added to the medium. […] BD Biosciences) 12 well plates at a density of about ten to fifteen per well in NPBSC expansion medium (N2B27 with CHIR, PMA and AA). For coating, Matrigel was diluted to a final dilution of 1:100 in Knockout DMEM (Invitrogen) prior to coat 500 μl per well of a 12 well plate over night. Coated plates were wrapped with Parafilm and kept in the fridge for up to one month. The first split was performed at a 1:5 to 1:10 ratio on day 2 to 4 after plating. All the remaining splitting ratios were 1:10. […]

NPBSCs [2] = assay: Neural rosette formation by NPBSC colonies cultured with FGF2
Method: (§1) For confocal microscopy, cells were plated on Matrigel-coated glass coverslips. Cultures were fixed for 20 minutes with 4% paraformaldehyde (Electron Microscopy Sciences) in PBS (Invitrogen) and washed twice with PBS. Permeabilization and blocking was done in one step using 0.1% Triton X-100 (Sigma Aldrich), 10% fetal calf serum (PAA) and 1% BSA in PBS for 45 minutes. Plates or coverslips were washed once with 0.1% BSA in PBS and the primary antibodies applied overnight at 4° C. in 1% BSA in PBS. The next day, following one washing step with 0.1% BSA in PBS, secondary antibodies were applied for one hour at room temperature in 1% BSA in PBS. Finally, cells were washed three times with 0.1% BSA in PBS-T (0.05% Tween 20), including a Hoechst counterstaining for nuclei in the second washing step. Cells were mounted in Vectashield mounting medium (Vector Labs) and imaged on a Zeiss PALM/Axiovert fluorescence microscope or a Zeiss LSM700 confocal microscope. If necessary, images were merged using ImageJ and Adobe Photoshop.
We tested this by culturing NPBSC colonies in the presence of FGF2, which has previously been reported to induce neural rosette formation by hEBs that have been plated (Zhang et al., 2001). […] For further characterization, we immunostained for ZO-1, which is expressed by neural rosettes but spatially localized to the apical surface (Elkabetz et al., 2008).

NPBSCs [3] = assay: Directed differentiation of NPBSCs into PNS neurons
Method: For generation of PNS neurons, NPBSCs two days after splitting were switched to N2B27 with only CHIR for two days. Afterward, 10 ng/ml BMP4 (R&D Systems) was added for eight days. Splitting and maturation was performed as described for the generation of motor neurons. For astrocyte and mesenchymal neural crest differentiation, NPBSCs were cultured with DMEM (PAA) with 10% fetal calf serum (PAA) and 1% Pen/Strep/Glutamin (PAA), beginning two days after splitting. Cultures were split twice at a 1:3 ratio when confluent using trypsin (Invitrogen).
as §1
Total RNA was isolated from cultured cells using RNeasy columns (Qiagen), according to manufacturer instructions, including an on-column DNase digest. […] Relative expression levels were calculated using the 2^−2Δ method, normalized to biological reference samples and using GAPDH and ACTB as housekeeping genes. […]

In the case of `Cc1cnc(-c2cnc(NCCNc3ccc(C#N)cn3)nc2-c2ccc(Cl)cc2Cl)[nH]1` [CHIR, 6-[[2-[[4-(2,4-dichlorophenyl)-5-(5-methyl-1H-imidazol-2-yl)-2-pyrimidinyl]amino]ethyl]amino]-3-pyridinecarbonitrile], the SOX1 expression (NPBSCs [1]; 6 days) is reported as “inhibited”, the “expression of dorsal neural progenitor markers MSX1 and PAX3” value (NPBSCs [1]; 6 days culture) is reported as “upregulated” and the “outcome of NPBSC derivation from EBs” value (differentiating hEBs) is reported as “produced many non-neural cells”.

For “FGF2: basic fibroblast growth factor, a member of the fibroblast growth factor family”, the neural rosette formation (NPBSCs [2]; NPBSC colonies cultured with FGF2 for 2 days) was “numerous neural rosettes were formed” and the ZO-1 expression localization (NPBSCs [2]; immunostaining after FGF2 treatment) was “re-oriented to the apical surface of the rosettes”.

B1: BMP4: activator of the BMP signalling pathway (Gene Symbol BMP4), from R&D Systems (protein, UniProt P12644 293-408, looked up)
Bone morphogenetic protein 4: SPKHHSQRARKKNKNCRRHSLYVDFSDVGWNDWIVAPPGYQAFYCHGDCPFPLADHLNSTNHAIVQTLVNSVNSSIPKACCVPTELSAISMLYLDEYDKVVLKNYQEMVVEGCGCR
With B1 the “PERIPHERIN immunostaining of neurons” value (NPBSCs [3]; 8 days BMP4) was “majority of the neurons were PERIPHERIN-positive”, the effect on neurogenesis (NPBSCs [3]; 8 days treatment) was “did not inhibit neurogenesis” and the “PERIPHERIN and BRN3A expression” value (NPBSCs [3]; qRT-PCR, 8 days of treatment) was “upregulated”.
